How the values were obtained:
[1] = test system: HES3 NKX2-5:GFP reporter hESC line derived cardiomyocytes; assay: qRT-PCR analysis of atrial and ventricular gene expression in day 20 hPSC-derived cardiomyocytes; assay type: cell-based, human; details: receptor-specific agonist added in place of RA to day 3 cultures
[2] = test system: HES3 NKX2-5:GFP hESC-derived mesoderm; assay: Specification of mesoderm populations to an atrial fate by ROH or RA (day 20 flow cytometry and qRT-PCR); assay type: cell-based, human; details: for atrial specification (MLC2V+, IRX4, KCNJ3, NR2F2): treated days 3-5
Procedure: To determine if the ALDH^+ cells can synthesize RA, the ALDH^+PDGFRalpha^+ and ALDH^− PDGFRalpha^+ fractions were isolated from the day 4 3B/2A-induced population, and the cells were cultured as aggregates in retinol (ROH), RA, or DMSO (control) for 24 hr (FIGS. 3A and 3B). ALDH1A2 expression segregated to the ALDH^+ fraction, confirming the validity of aldefluor-based sorting strategy for isolating RALDH2-expressing cells (FIG. 3C).
(§1) For cardiac differentiation, we used a modified version of our embryoid body (EB)-based protocol (Kattman et al., 2011). hPSC populations at 80%-90% confluence were dissociated into single cells (TrypLE, ThermoFisher) and re-aggregated to form EBs in StemPro-34 media (ThermoFisher) containing penicillin/streptomycin (1%, ThermoFisher), L-glutamine (2 mM, ThermoFisher), trans-ferrin (150 μg/ml, ROCHE), ascorbic acid (50 μg/ml, Sigma), and monothioglycerol (50 μg/ml, Sigma), ROCK inhibitor Y-27632 (10 μM, TOCRIS) and rhBMP4 (1 ng/ml, R&D) for 18 h on an orbital shaker. At day 1, the EBs were transferred to mesoderm induction media consisting of StemPro-34 with above supplements (-ROCK inhibitor Y-27632) and rhBMP4, rhActivinA (R&D) and rhbFGF (5 ng/ml, R&D) at the indicated concentrations. At day 3, the EBs were harvested, washed with IMDM and transferred to cardiac mesoderm specification media consisting of StemPro-34, the Wnt inhibitor IWP2 (1 μM, TOCRIS) and rhVEGF (10 ng/mL, R&D). At day 5, the EBs were transferred to Stem Pro-34 with rhVEGF (5 ng/ml) for another 7 days and then to Stem Pro-34 media without additional cytokines for further 8 days. At day 20, HES3-NKX2-5gfp/w-derived cardiomyocytes were analyzed and isolated based on the expression of NKX2-5:GFP and SIRPa and a lack of CD90. Cardiomyocytes generated from non-transgenic hPSC lines were analyzed and isolated as SIRPa+CD90− populations. Media was changed every 3 days. Cultures were incubated in a low oxygen environment (5% CO2, 5% O2, 90% N2) for first 12 days and a normoxic environment (5% CO2) for the following 8 days in total of 20 days. The EBs were cultured in ultra-low attachment 6-well dishes (Corning) throughout the differentiation for maintaining suspension cultures.
Following optimization, either ATRA (0.5 μM, Sigma) or retinol (2 μM, Sigma) was included in the cardiac mesoderm specification media from days 3-5 for the generation of atrial cardiomyocytes.
(§2) Day 2-6 EBs were dissociated with TrypLE for 2-4 min at room temperature (RT). Day 20 EBs were dissociated by incubation in Collagenase type 2 (0.5 mg/ml, Worthington) in HANKs buffer overnight at RT followed by TrypLE treatment as described above. The following antibodies were used for staining: anti-PDGFRa-PE (R&D Systems, 3:50), anti-CD235a-APC (BD PharMingen, 1:100), antiSIRPa-PeCy7 (Biolegend, 1:1000), anti-CD90-APC (BD PharMingen, 1:1000), anticardiac isoform of CTNT (ThermoFisher Scientific, 1:2000), or anti-myosin light chain 2 (Abcam, 1:1000). For unconjugated primary antibodies, the following secondary antibodies were used for detection: goat anti-mouse IgG-APC (BD Pharmigen, 1:250), or donkey anti-rabbit IgG-PE (Jackson ImmunoResearch, 1:250). Detailed antibody information is described in Table 2.
The Aldefluor™ assay (STEMCELL Technologies) was performed according to the instruction provided by the manufacturer. Briefly, day 2-6 EBs were dissociated as described above. […] Stained cells were analyzed as described above. […]

[3] = test system: HES3 NKX2-5:GFP hESC-derived mesoderm; assay: as above; assay type: cell-based, human; details: day 4, 5B/4A induced
[4] = test system: HES2 human embryonic stem cell derived EBs; assay: ROH/RA response of HES2-derived EBs (day 20 flow cytometry and qRT-PCR); assay type: cell-based; details: treated days 3 to 5
Excerpt: (§3) To determine if the approach for optimizing atrial and ventricular differentiation based on ALDH activity and CD235a expression is broadly applicable, we next used it to generate these cardiomyocyte populations from the HES2 human embryonic stem cell and the MSC-iPS1 induced pluripotent stem cell lines. Titration studies identified 5B/2A and 5B/6A as optimal for atrial and ventricular inductions, respectively, for HES2 cells and 4B/4A as optimal for ventricular induction for MSCiPSC1 cells (FIGS. 7A, 7B, 7E, and 7F; Mendeley http://dx.doi.org/10.17632/7z7d5v2c3w.1). Optimization of atrial induction from the MSC-iPSC1 cells was more challenging, as all cytokine combinations promoted the development of a substantial CD235a+ population. One interpretation of these patterns is that the MSC-iPS1 cells have a high level of endogenous Nodal/Activin A signaling, resulting in the development of some CD235a+ cells under all conditions. To test this, we added the Nodal/Activin A/transforming growth factor beta (TGF-beta) inhibitor SB-431542 (SB) from days 3 to 5 to cells induced with 4B/1A.
as §1, with “The EBs were cultured in ultra-low attachment 6-well dishes (Corning) throughout the differentiation for maintaining suspension cultures.” left out

[5] = test system: MSC-iPS1 induced pluripotent stem cell line derived EBs; assay: ROH/RA response of MSC-iPS1-derived EBs (day 20 flow cytometry and qRT-PCR); assay type: cell-based, human; details: treated days 3 to 5
Excerpt: as §3
as §1, with “The EBs were cultured in ultra-low attachment 6-well dishes (Corning) throughout the differentiation for maintaining suspension cultures.” left out

[6] = test system: MSC-iPS1 induced pluripotent stem cell line derived EBs; assay: Flow cytometry of ALDH activity and CD235a in MSC-iPS1-derived EBs treated with SB-431542; assay type: cell-based, human; details: SB days 3 to 5, cells induced with 4B/1A
Excerpt: as §3, §2
The Aldefluor™ assay (STEMCELL Technologies) was performed according to the instruction provided by the manufacturer. […] Stained cells were analyzed as described above. […]

[7] = test system: hPSC-derived day 2-6 EB mesoderm; assay: Aldefluor assay and flow cytometry of mesoderm (ALDH activity, PDGFRalpha, CD235a); assay type: cell-based, human
Procedure: as §2
The Aldefluor™ assay (STEMCELL Technologies) was performed according to the instruction provided by the manufacturer. Briefly, day 2-6 EBs were dissociated as described above. Cells were stained at a concentration of 2×10^6 cells/ml in the aldefluor assay buffer containing 0.1% BSA and BAAA substrate (0.12 mg/ml) for 60 min at 37 degrees C. The aldehyde dehydrogenase inhibitor DEAB ([…]) was added to the negative control sample. Cells were washed with cold media consisting of IMDM with 5% FCS and 10% aldefluor assay buffer. Cells were then stained with antibodies to cell surface markers at the concentrations indicated above in cold wash media for additional 20 min at 4 degrees C. Stained cells were analyzed as described above. During analyses, the cells were kept in cold wash media. For cell sorting, FCS was replaced with KnockOut™ serum replacement (ThermoFisher) to avoid any impact of serum-contained cy-tokines on the cell differentiations. Cells were maintained in StemPro-34 containing 10% aldefluor assay buffer throughout the sorting procedure. The sorted cells were collected and re-aggregated in StemPro-34 containing ROCK inhibitor (10 μM), IWP2 (0.5 μM) and rhVEGF (5 ng/ml).

[8] = test system: HES3 NKX2-5:GFP hESC-derived day 20 EB populations; assay: Flow cytometric and immunostaining analyses of day 20 EB populations (CTNT, MLC2V, NKX2-5, COUPTFII); assay type: cell-based, human
Procedure: as §1, §2
For cell-surface marker analyses, cells were stained for 30 min at 4 degrees C. in FACS buffer consisting of PBS with 5% fetal calf serum (FCS) (Wisent) and 0.02% sodium azide. For intracellular staining, cells were fixed for 15 min at 4 degrees C. with 4% PFA in PBS followed by permeabilization using 90% methanol for 20 min at 4 degrees C. Cells were washed with PBS containing 0.5% BSA (Sigma) and stained with unconjugated primary antibodies in FACS buffer overnight at 4 degrees C. Stained cells were washed with PBS with 0.5% BSA and stained with secondary antibodies in FACS buffer for 1 h at 4 degrees C.
Stained cells were analyzed using the LSR II Flow cytometer (BD). For cell sorting, stained cells were kept in IMDM with 0.5% FCS and sorted using Influx (BD), FACSAriall (BD), MoFlo-XDP (BD) and FACSAria Fusion (BD) at the Sickids/UHN flow cytometry facility. Data were analyzed using FlowJo software (Tree Star).
Day 20 EBs were dissociated as described above and the cells plated onto 12 mm cover glasses (VWR) pre-coated with matrigel (25% v/v, BD). Cells were cultured for 3-5 days to enable the formation of adherent cell monolayers. Cells were fixed with
4% PFA in PBS for 10 min at room temperature and permeabilized with PBS containing 0.3% TritonX, 200 mM Glycine (Sigma) for 20 min at RT. Cells were blocked with PBS containing 10% FCS, 0.1% TritonX, and 2% BSA. […]

[9] = reducing BMP4 from 10 to 3 ng/mL, Activin A 2 ng/mL
[10] = increasing Activin A from 2 to 12 ng/ml, BMP4 10 ng/mL
[11] = reducing Activin A, constant BMP4 (10 ng/mL)

## CCCCCCCCc1ccc(-c2ccc(C(=O)O)cc2)cc1 [AC55649]
[1]
  MYL2 expression in day 20 CTNT+ populations: reduction

## CC1(C)CCC(C)(C)c2cc(C(=O)Nc3ccc(C(=O)O)cc3)ccc21 [AM580]
[1]
  MYL2 expression in day 20 CTNT+ populations: reduction

## O=C(O)c1ccc2cc(-c3ccc(O)c(C45CC6CC(CC(C6)C4)C5)c3)ccc2c1 [CD437]
[1]
  MYL2 expression in day 20 CTNT+ populations: reduction

## CC1=C(/C=C/C(C)=C/C=C/C(C)=C/CO)C(C)(C)CCC1 [ROH, retinol]
[2]; 3B/2A-induced EBs
  atrial specification (MLC2V+, IRX4, KCNJ3, NR2F2): responded to ROH and generated an atrial-like cardiomyocyte population
[2]; 5B/12A-induced EBs
  atrial specification (MLC2V+, IRX4, KCNJ3, NR2F2): did not respond
[2]; ALDH+PDGFRalpha+ fraction, day 4, 3B/2A induced, 24 hr treatment
  atrial specification (MLC2V+ frequency, IRX4, KCNJ3): generated an atrial-like cardiomyocyte population
[3]; CD235a+ALDH− fraction
  atrial specification (MLC2V+, IRX4, NPPA, KCNJ3, NR2F2): no response
[3]; CD235a−ALDH+ fraction
  atrial specification (MLC2V+, IRX4, NPPA, KCNJ3, NR2F2): gave rise to an atrial-like cardio-myocyte population
[4]; HES2, 5B/2A induced
  response of ALDH+ mesoderm (atrial expression profile): responded to both ROH and RA
[4]; HES2, 5B/6A induced
  response of CD235a+ mesoderm (MLC2V content, MYL2, IRX4, KCNJ3, NR2F2): Neither CD235a+ mesoderm population responded
[5]; MSC-iPS1, 4B/1A+SB induced
  response of ALDH+ mesoderm (atrial expression profile): responded to both ROH and RA
[5]; MSC-iPS1, 4B/4A induced
  response of CD235a+ mesoderm (MLC2V content, MYL2, IRX4, KCNJ3, NR2F2): Neither CD235a+ mesoderm population responded

## NC(=O)c1ccc(-c2nc(-c3ccc4c(c3)OCO4)c(-c3ccccn3)[nH]2)cc1 [SB-431542]
[6]
  CD235a+ cells: reduction
  CTNT+MLC2V− cardiogenic potential of the mesoderm: without affecting
  size of the ALDH+ population: increase in the size

B1: BMP4: Bone Morphogenetic Protein 4, recombinant human (R&D) (protein, UniProt P12644 293-408, looked up)
Bone morphogenetic protein 4: SPKHHSQRARKKNKNCRRHSLYVDFSDVGWNDWIVAPPGYQAFYCHGDCPFPLADHLNSTNHAIVQTLVNSVNSSIPKACCVPTELSAISMLYLDEYDKVVLKNYQEMVVEGCGCR
[7]; BMP4 3-20 ng/mL, Activin A 12 ng/mL
  size of the CD235a+ population: little impact
[7]; [9]
  size of the ALDH+PDGFRalpha+ population: did not influence
[8]; BMP4 20 ng/mL, Activin A 12 ng/mL
  frequency of MLC2V+CTNT+ cells at day 20: lowest frequency
[8]; [9]
  frequency of CTNT+ cells at day 20: increase the frequency

B2: Activin A: Recombinant human ActivinA (R&D), activates nodal signal transduction (protein, UniProt P08476 311-426, looked up)
Inhibin beta A chain: GLECDGKVNICCKKQFFVSFKDIGWNDWIIAPSGYHANYCEGECPSHIAGTSGSSLSFHSTVINHYRMRGHSPFANLKSCCVPTKLRPMSMLYYDDGQNIIKKDIQNMIVEECGCS
modifications: Inhibin beta A chain
[7]; [10]
  ALDH+ population: elimination
  size of the day 4 CD235a+ population: increase in the size
[7]; [11]
  size of the ALDH+PDGFRalpha+ population at day 4: substantial increase
[8]; [10]
  proportion of MLC2V+CTNT+ cells: increase in the proportion
[8]; [11]
  proportion of CTNT+ cardiomyocytes generated: decrease

Reference: patent US20190336537A1, “GENERATING ATRIAL AND VENTRICULAR CARDIOMYOCYTE LINEAGES FROM HUMAN PLURIPOTENT STEM CELLS” (UNIVERSITY HEALTH NETWORK, priority 2016, published 2019)
